This is an account of results in patent US20240150321A1, “PYRAZOLYLSULFONAMIDE COMPOUNDS AND THEIR USE IN THERAPY” (HOTSPOT THERAPEUTICS, INC., priority 2022, published 2024).

Where two headings read alike, the source gives them in different places.

For test [1], the target named is Avi-tagged FL MALT-1 (Homo sapiens (Human), UniProt Q9UDY8). Nature of the test: MALT-1 Fluorogenic Peptide Cleavage Assay (MALT1 inhibition assay). Type of test: biochemical. The note with it: Ac-LRSR-AMC peptide substrate, 30 min pre-incubation, 90 min reaction at room temperature. The method in brief:
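Cleavage of Ac-LRSR-AMC, read as fluorescence at 342/441 nm after 90 min at room temperature, with substrate working stocks of 50 μM (Km) or 280 μM (10×Km). Enzyme, Avi-tagged full-length MALT-1 (40 nM stock), was first pre-incubated 30 min with compound in citrate/HEPES pH 6.89 buffer with TCEP, EDTA, CHAPS and 2% DMSO; IC50 fitted from normalised % inhibition.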

The test system of test [2] is NF-kB reporter in Jurkat cells. The test is described as follows: NF-kB reporter assay in Jurkat cells stimulated with aCD3/aCD28/PMA. The test is classed as cell-based. The note with it: Homo sapiens, read-out: NF-kB Reporter Assay IC50. The procedure, abridged: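 Luminescence (One-Glo) from the NF-kB reporter yielded IC50 values. Stimulation lasted 4 h at 37° C with aCD3, aCD28 and PMA (final 5, 5 and 0.03 […]), after 1 h compound pre-exposure of 25,000 Jurkat cells per well in serum-free RPMI.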
A general note: Reporter assays use an easily measured gene product as a stand-in for the process of interest.

Where [3] appears, read: Jurkat cells, 1 hr compound pre-incubation, aCD3/aCD28/PMA stimulation 4 hr, One-Glo readout.

Avi-tagged FL MALT-1, sequence (Q9UDY8 whole entry): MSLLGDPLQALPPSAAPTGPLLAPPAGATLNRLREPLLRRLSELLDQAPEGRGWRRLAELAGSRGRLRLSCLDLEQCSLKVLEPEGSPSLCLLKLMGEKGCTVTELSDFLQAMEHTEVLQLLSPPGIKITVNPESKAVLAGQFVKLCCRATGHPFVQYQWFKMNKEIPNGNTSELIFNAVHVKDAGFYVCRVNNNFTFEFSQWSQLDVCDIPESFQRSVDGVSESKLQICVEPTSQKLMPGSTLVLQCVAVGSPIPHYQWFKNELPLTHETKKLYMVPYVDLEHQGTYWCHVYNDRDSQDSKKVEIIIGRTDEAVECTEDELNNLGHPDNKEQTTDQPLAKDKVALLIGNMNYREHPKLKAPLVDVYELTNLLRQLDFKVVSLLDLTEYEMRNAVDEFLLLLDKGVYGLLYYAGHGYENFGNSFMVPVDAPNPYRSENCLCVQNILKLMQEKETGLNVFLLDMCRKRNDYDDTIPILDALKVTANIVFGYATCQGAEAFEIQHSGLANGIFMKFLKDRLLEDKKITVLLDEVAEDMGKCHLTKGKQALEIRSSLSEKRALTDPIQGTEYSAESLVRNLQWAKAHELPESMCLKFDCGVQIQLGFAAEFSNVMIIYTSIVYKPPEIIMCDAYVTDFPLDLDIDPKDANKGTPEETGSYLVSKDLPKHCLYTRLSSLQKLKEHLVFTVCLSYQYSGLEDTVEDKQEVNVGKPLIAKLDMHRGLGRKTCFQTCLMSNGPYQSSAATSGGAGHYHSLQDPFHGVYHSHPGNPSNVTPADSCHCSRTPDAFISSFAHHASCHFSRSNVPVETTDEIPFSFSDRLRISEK

`COc1ccc2cnn(C)c2c1NS(=O)(=O)c1cnn(-c2cc(C3(C#N)CC3)ccn2)c1` [Compound I-470, 1-[4-(1-cyanocyclopropyl)pyridin-2-yl]-N-(6-methoxy-1-methylindazol-7-yl)pyrazole-4-sulfonamide]: the IC50 was 0.4 to 1 µM in test [1] and under 0.4 µM in test [2] (Jurkat).
Take `COc1ncc2cnn(C)c2c1NS(=O)(=O)c1cnn(-c2cc(N3CCC(C)(C)C3)ccn2)c1` [Compound I-425]: the IC50 in test [1] is over 2.5 µM; in test [2] (setting [3]), under 0.4 µM.
Taken in the same sequence, the figures for `COc1ccc2cnn(C)c2c1NS(=O)(=O)c1cnn(-c2cc(N3CC(C)(C)C3)ccn2)c1` [Compound I-370, 1-[4-(3,3-dimethylazetidin-1-yl)pyridin-2-yl]-N-(6-methoxy-1-methylindazol-7-yl)pyrazole-4-sulfonamide] were over 2.5 µM and under 0.4 µM.
On the same counts, the results for `COc1ccc2[nH]nc(C)c2c1N(C)S(=O)(=O)c1cnn(-c2ccnc(C(F)(F)F)c2)c1` [Compound I-80, N-(5-methoxy-3-Methyl-1H-Indazol-4-yl)-N-Methyl-1-(2-(Trifluoromethyl)Pyridin-4-yl)-1H-Pyrazole-4-Sulfonamide] are at most 0.4 µM and 1 to 2.5 µM.
On the same counts, the results for `Cc1n[nH]c2cccc(NS(=O)(=O)c3cnn(-c4cc(C5(O)CCCC5)ccn4)c3)c12` [Compound I-246, 1-[4-(1-hydroxycyclopentyl)pyridin-2-yl]-N-(3-methyl-1H-indazol-4-yl)pyrazole-4-sulfonamide] are over 2.5 µM and under 0.4 µM.
For `COC1(c2ccnc(-n3cc(S(=O)(=O)Nc4cccc5cnn(C)c45)cn3)c2)CCC1` [Compound I-93, 1-(4-(1-Methoxycyclobutyl)Pyridin-2-yl)-N-(1-Methyl-1H-Indazol-7-yl)-1H-Pyrazole-4-Sulfonamide], the results for the IC50 in test [1] and in test [2] (setting [3]) were over 2.5 µM and under 0.4 µM, respectively.
As for `COc1ccc2cnn(C)c2c1NS(=O)(=O)c1cnn(-c2cc(Cl)ccn2)c1` [Compound I-54], the IC50 in test [1] is at most 0.4 µM; in test [2] (setting [3]), under 0.4 µM.
With `COc1ccc2cnn(C)c2c1NS(=O)(=O)c1cnn(-c2cc(C(C)(C)O)ccn2)c1` [Compound I-135, 1-(4-(2-hydroxypropan-2-yl)pyridin-2-yl)-N-(6-methoxy-1-methyl-1H-indazol-7-yl)-1H-pyrazole-4-sulfonamide], the figures for the IC50 in test [1] and in test [2] (setting [3]) were 0.4 to 1 µM and under 0.4 µM, respectively.
Regarding `CN1CCn2ncc(-n3cc(S(=O)(=O)Nc4cccc5cnn(C)c45)cn3)c2C1` [Compound I-466, 1-{5-methyl-4H,6H,7H-pyrazolo[1,5-a]pyrazin-3-yl}-N-(1-methylindazol-7-yl)pyrazole-4-sulfonamide], the IC50 in test [1] and in test [2] (setting [3]) was over 2.5 µM throughout.
`COc1ccc2cnn(C)c2c1NS(=O)(=O)c1cnn(-c2cc(CO)ccn2)c1` [Compound I-323, 1-[4-(hydroxymethyl)pyridin-2-yl]-N-(6-methoxy-1-methylindazol-7-yl)pyrazole-4-sulfonamide]: the IC50 in test [1] is 0.4 to 1 µM; in test [2] (setting [3]), under 0.4 µM.
With `COc1ncc2cnn(C)c2c1NS(=O)(=O)c1cnn(-c2cc(N3CCCCCC3)ccn2)c1` [Compound I-408], the results for the IC50 in test [1] and in test [2] (setting [3]) were over 2.5 µM and under 0.4 µM, respectively.
In the case of `COCCn1ncc2cccc(NS(=O)(=O)c3cnn(-c4cc(C(F)(F)F)ccn4)c3)c21` [Compound I-98, N-(1-(2-Methoxyethyl)-1H-Indazol-7-yl)-1-(4-(Trifluoromethyl)Pyridin-2-yl)-1H-Pyrazole-4-Sulfonamide], the IC50 in test [1] and in test [2] (setting [3]) was over 2.5 µM throughout.
On to `COC1(c2ccnc(-n3cc(S(=O)(=O)Nc4cccc5cnn(C)c45)cn3)c2)CC(F)(F)C1` [Compound I-138, 1-(4-(3,3-difluoro-1-methoxycyclobutyl)pyridin-2-yl)-N-(1-methyl-1H-indazol-7-yl)-1H-pyrazole-4-sulfonamide], for which the results for the IC50 in test [1] and in test [2] (setting [3]) were over 2.5 µM and under 0.4 µM, respectively.
Turning to `C[C@@H](O)c1ccnc(-n2cc(S(=O)(=O)Nc3cccc4cnn(C)c34)cn2)c1` [Compound I-269], the IC50 in test [1] is over 2.5 µM; in test [2] (setting [3]), under 0.4 µM.
On the same counts, the results for `Cc1n[nH]c2cccc(NS(=O)(=O)c3cnn(-c4ccc(C5CC5)cn4)c3)c12` [Compound I-106, 1-(5-cyclopropylpyridin-2-yl)-N-(3-methyl-1H-indazol-4-yl)-1H-pyrazole-4-sulfonamide] are over 2.5 µM and under 0.4 µM.
Taken in the same sequence, the figures for `CN1CC(F)(c2ccnc(-n3cc(S(=O)(=O)Nc4cccc5cnn(C)c45)cn3)c2)C1` [Compound I-251, 1-(4-(3-fluoro-1-methylazetidin-3-yl)pyridin-2-yl)-N-(1-methyl-1H-indazol-7-yl)-1H-pyrazole-4-sulfonamide] were over 2.5 µM and under 0.4 µM.
On the same counts, the results for `CC[C@@](C)(OC)c1ccnc(-n2cc(S(=O)(=O)Nc3cccc4cnn(C)c34)cn2)c1` (stereo in doubt) [Compound I-314, 1-(4-(2-methoxybutan-2-yl)pyridin-2-yl)-N-(1-methyl-1H-indazol-7-yl)-1H-pyrazole-4-sulfonamide] are over 2.5 µM and under 0.4 µM.
On to `Cn1ncc2cccc(NS(=O)(=O)c3cnn(-c4cc(C5(F)CCOCC5)ccn4)c3)c21` [Compound I-130, 1-(4-(4-fluorotetrahydro-2H-pyran-4-yl)pyridin-2-yl)-N-(1-methyl-1H-indazol-7-yl)-1H-pyrazole-4-sulfonamide], for which the IC50 in test [1] is over 2.5 µM; in test [2] (setting [3]) it was under 0.4 µM.
For the molecule `CCC(CC)(OC)c1ccnc(-n2cc(S(=O)(=O)Nc3c(OC)ccc4cnn(C)c34)cn2)c1` [Compound I-299, N-(6-Methoxy-1-Methyl-1H-Indazol-7-yl)-1-(4-(3-Methoxypentan-3-yl)Pyridin-2-yl)-1H-Pyrazole-4-Sulfonamide], the figures for the IC50 in test [1] and in test [2] (setting [3]) were at most 0.4 µM and 0.4 to 1 µM, respectively.
Taken in the same sequence, the figures for `Cn1ncc2cccc(NS(=O)(=O)c3cnn(-c4cc(N5CCOCC5)ccn4)c3)c21` [Compound I-103, N-(1-methyl-1H-indazol-7-yl)-1-(4-morpholinopyridin-2-yl)-1H-pyrazole-4-sulfonamide] were over 2.5 µM and under 0.4 µM.
As for `Cn1ncc2cccc(NS(=O)(=O)c3cnn(-c4cc(N5CCC5)ccn4)c3)c21` [Compound I-248, 1-(4-(azetidin-1-yl)pyridin-2-yl)-N-(1-methyl-1H-indazol-7-yl)-1H-pyrazole-4-sulfonamide], the results for the IC50 in test [1] and in test [2] (Jurkat) were over 2.5 µM and under 0.4 µM, respectively.
`C[C@H]1CN(c2ccnc(-n3cc(S(=O)(=O)Nc4cccc5cnn(C)c45)cn3)c2)C(=O)N1C` [Compound I-346]: the concentration for half-maximal inhibition (IC50) in test [1] was over 2.5 µM; in test [2] (setting [3]), under 0.4 µM.
On the same counts, the results for `COc1ccnc(-n2cc(S(=O)(=O)Nc3cccc4cnn(C)c34)cn2)c1` [Compound I-146, 1-(4-methoxypyridin-2-yl)-N-(1-methylindazol-7-yl)pyrazole-4-sulfonamide] are over 2.5 µM and under 0.4 µM.
As to `Cn1ncc2ccc(F)c(NS(=O)(=O)c3cnn(-c4cc(C(F)(F)F)ccn4)c3)c21` [Compound I-136, N-(6-fluoro-1-methyl-1H-indazol-7-yl)-1-(4-(trifluoromethyl)pyridin-2-yl)-1H-pyrazole-4-sulfonamide], the IC50 in test [1] and in test [2] (setting [3]) was 0.4 to 1 µM each time.
Regarding `CN1CCN(c2ccnc(-n3cc(S(=O)(=O)Nc4cccc5cnn(C)c45)cn3)c2)C1=O` [Compound I-322], the IC50 is over 2.5 µM in test [1] and under 0.4 µM in test [2] (setting [3]).
Taken in the same sequence, the figures for `COc1ccc2cnn(C)c2c1NS(=O)(=O)c1cnn(-c2cc(C3(F)COC3)ccn2)c1` [Compound I-69, 1-(4-(3-Fluorooxetan-3-yl)Pyridin-2-yl)-N-(6-Methoxy-1-Methyl-1H-Indazol-7-yl)-1H-Pyrazole-4-Sulfonamide] were at most 0.4 µM and under 0.4 µM.
On the same counts, the results for `CCc1ccc2cnn(C)c2c1NS(=O)(=O)c1cnn(-c2cc(C)ccn2)c1` [Compound I-34, N-(6-Ethyl-1-Methyl-1H-Indazol-7-yl)-1-(4-Methylpyridin-2-yl)-1H-Pyrazole-4-Sulfonamide] are at most 0.4 µM and under 0.4 µM.
On the same counts, the results for `Cc1n[nH]c2cccc(NS(=O)(=O)c3cnn(-c4cc(C5(O)CCC5)ccn4)c3)c12` [Compound I-255, 1-[4-(1-hydroxycyclobutyl)pyridin-2-yl]-N-(3-methyl-1H-indazol-4-yl)pyrazole-4-sulfonamide] are over 2.5 µM and under 0.4 µM.
For the molecule `Cn1cc2ccc(Cl)c(NS(=O)(=O)c3cnn(-c4ccnc(C(F)(F)F)c4)c3)c2n1` [Compound I-47, N-(6-Chloro-2-Methyl-2H-Indazol-7-yl)-1-(2-(Trifluoromethyl) Pyridin-4-yl)-1H-Pyrazole-4-Sulfonamide], the IC50 in test [1] and in test [2] (setting [3]) was over 2.5 µM throughout.
`C[C@@H]1CCN(c2ccnc(-n3cc(S(=O)(=O)Nc4cccc5cnn(C)c45)cn3)c2)C1` [Compound I-401, N-(1-methylindazol-7-yl)-1-{4-[(3R)-3-methylpyrrolidin-1-yl]pyridin-2-yl}pyrazole-4-sulfonamide]: the IC50 in test [1] was over 2.5 µM; in test [2] (setting [3]) it was under 0.4 µM.

Usually IC50 stands for the concentration that inhibits the measured activity by half.
